# Source: US20230139171A1 (SITA Information Networking Computing UK Limited, priority 2019, published 2023)
# Columns and labels:
# human TLR7 = target: T1, human TLR7 (Homo sapiens, UniProt Q9NYK1); assay: TLR7 inhibition reporter assay (HEK-Blue cells, SEAP reporter, gardiquimod stimulation); assay type: cell-based; details: HEK-Blue cells overexpressing human TLR7, SEAP reporter, gardiquimod 7.5 μM; read-out: TLR7 IC50
# T1 construct: host or cells: HEK-Blue cells
# T1 sequence (Q9NYK1 27-1049): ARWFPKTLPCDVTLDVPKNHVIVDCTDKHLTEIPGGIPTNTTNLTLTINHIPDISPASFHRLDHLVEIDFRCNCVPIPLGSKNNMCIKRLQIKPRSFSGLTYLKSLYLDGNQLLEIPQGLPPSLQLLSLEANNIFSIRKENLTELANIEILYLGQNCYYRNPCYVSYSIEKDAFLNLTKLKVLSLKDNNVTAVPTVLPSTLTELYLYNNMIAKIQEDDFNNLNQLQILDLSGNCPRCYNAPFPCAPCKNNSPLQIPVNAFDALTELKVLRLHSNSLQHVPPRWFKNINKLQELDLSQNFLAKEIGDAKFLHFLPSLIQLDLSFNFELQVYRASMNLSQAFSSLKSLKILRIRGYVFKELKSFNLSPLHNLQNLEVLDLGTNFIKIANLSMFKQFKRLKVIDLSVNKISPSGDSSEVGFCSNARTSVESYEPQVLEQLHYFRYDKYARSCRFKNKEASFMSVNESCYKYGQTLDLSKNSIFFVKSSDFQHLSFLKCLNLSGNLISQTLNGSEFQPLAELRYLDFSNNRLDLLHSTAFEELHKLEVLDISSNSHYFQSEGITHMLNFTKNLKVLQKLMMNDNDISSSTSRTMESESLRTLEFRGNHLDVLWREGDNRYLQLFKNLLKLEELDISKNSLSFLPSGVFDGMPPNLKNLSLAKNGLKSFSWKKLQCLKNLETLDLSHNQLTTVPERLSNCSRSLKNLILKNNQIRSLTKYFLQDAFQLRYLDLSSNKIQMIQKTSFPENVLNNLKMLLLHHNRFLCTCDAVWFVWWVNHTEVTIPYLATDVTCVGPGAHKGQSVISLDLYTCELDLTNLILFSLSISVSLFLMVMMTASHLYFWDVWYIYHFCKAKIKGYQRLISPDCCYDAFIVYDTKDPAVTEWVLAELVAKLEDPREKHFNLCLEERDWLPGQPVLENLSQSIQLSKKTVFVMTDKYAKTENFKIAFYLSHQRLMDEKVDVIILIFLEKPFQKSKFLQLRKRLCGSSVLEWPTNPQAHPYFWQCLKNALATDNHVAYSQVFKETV
# Protocol: (§1) TLR7/8/9 Inhibition Reporter Assays
# (§2) HEK-Blue™-cells (Invivogen) overexpressing human TLR7, TLR8 or TLR9 receptors were used for screening inhibitors of these receptors using an inducible SEAP (secreted embryonic alkaline phosphatase) reporter gene under the control of the IFN-β minimal promoter fused to five NF-κB and AP-1-binding sites. Briefly, cells are seeded into Greiner 384 well plates (15000 cells per well for TLR7, 20,000 for TLR8 and 25,000 for TLR9) and then treated with test compounds in DMSO to yield a final dose response concentration range of 0.05 nM-50 μM. After a 30 minute compound pre-treatment at room temperature, the cells are then stimulated with a TLR7 ligand (gardiquimod at a final concentration of 7.5 μM), TLR8 ligand (R848 at a final concentration of 15.9 μM) or TLR9 ligand (ODN2006 at a final concentration of 5 nM) to activate NF-κB and AP-1 which induce the production of SEAP. After a 22 hour incubation at 37° C., 5% CO2, SEAP levels are determined with the addition of HEK-Blue™ Detection reagent (Invivogen), a cell culture medium that allows for detection of SEAP, according to manufacturer's specifications. The percent inhibition is determined as the % reduction in the HEK-Blue signal present in wells treated with agonist plus DMSO alone compared to wells treated with a known inhibitor.
# human TLR8 = target: T2, human TLR8 (Homo sapiens, UniProt Q9NR97); assay: TLR8 inhibition reporter assay (HEK-Blue cells, SEAP reporter, R848 stimulation); assay type: cell-based; details: HEK-Blue cells overexpressing human TLR8, SEAP reporter, R848 15.9 μM; read-out: TLR8 IC50
# T2 construct: host or cells: HEK-Blue cells
# T2 sequence (Q9NR97 27-1041): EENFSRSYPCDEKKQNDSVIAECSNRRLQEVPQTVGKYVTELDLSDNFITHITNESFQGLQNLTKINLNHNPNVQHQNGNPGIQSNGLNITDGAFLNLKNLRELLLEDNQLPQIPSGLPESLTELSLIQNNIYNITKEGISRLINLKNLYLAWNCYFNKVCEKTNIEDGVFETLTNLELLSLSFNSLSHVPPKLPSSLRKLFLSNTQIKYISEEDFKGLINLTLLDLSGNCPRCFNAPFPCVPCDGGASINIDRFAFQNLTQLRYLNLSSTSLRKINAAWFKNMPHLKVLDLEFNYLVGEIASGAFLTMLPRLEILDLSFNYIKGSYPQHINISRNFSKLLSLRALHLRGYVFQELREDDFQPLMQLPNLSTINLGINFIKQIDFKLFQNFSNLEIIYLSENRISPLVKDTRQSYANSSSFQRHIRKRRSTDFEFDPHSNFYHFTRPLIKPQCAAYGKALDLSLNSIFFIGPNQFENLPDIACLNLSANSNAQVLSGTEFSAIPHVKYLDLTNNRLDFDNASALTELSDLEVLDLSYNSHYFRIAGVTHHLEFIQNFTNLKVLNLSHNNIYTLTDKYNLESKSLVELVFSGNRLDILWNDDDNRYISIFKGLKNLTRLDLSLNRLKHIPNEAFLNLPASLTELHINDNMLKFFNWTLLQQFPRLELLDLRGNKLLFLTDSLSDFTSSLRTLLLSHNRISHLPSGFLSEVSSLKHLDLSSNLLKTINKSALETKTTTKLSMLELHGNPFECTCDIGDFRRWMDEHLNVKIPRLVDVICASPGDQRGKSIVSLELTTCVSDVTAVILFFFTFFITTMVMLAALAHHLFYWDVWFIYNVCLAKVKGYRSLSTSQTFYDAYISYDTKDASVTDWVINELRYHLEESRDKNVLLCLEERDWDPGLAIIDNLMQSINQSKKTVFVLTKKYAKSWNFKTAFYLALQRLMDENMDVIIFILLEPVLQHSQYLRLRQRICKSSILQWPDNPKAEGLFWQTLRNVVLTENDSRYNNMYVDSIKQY
# Protocol: as §1, §2
Compound,IC50 (human TLR7) [nM],IC50 (human TLR8) [nM]
"CC(C)c1c(-c2cn(C)c3ncccc23)[nH]c2sc(C3CCN(C(=O)CN(C)C)CC3)nc12 [Example 32, 2-(dimethylamino)-1-(4-(6-isopropyl-5-(1-methyl-1H-pyrrolo[2,3-b]pyridin-3-yl)-4H-pyrrolo[3,2-d]thiazol-2-yl)piperidin-1-yl)ethan-1-one]",3.41,15.9
"Cc1c(-c2[nH]c3sc(C4CCN(CCS(C)(=O)=O)CC4)nc3c2C(C)C)cn2ncnc2c1C [Example 55, 5-(7,8-dimethyl-[1,2,4]triazolo[1,5-a]pyridin-6-yl)-6-isopropyl-2-(1-(2-(methylsulfonyl)ethyl)piperidin-4-yl)-4H-pyrrolo[3,2-d]thiazole]",2.99,1.15
"CC(C)c1c(-c2cn(C)c3ncccc23)[nH]c2sc(C3CCN(CCS(C)(=O)=O)CC3)nc12 [Example 33, 6-isopropyl-5-(1-methyl-1H-pyrrolo[2,3-b]pyridin-3-yl)-2-(1-(2-(methylsulfonyl)ethyl)piperidin-4-yl)-4H-pyrrolo[3,2-d]thiazole]",3.86,1.52
"Cc1c(-c2[nH]c3sc(C4CCN(CCS(C)(=O)=O)CC4)nc3c2C(C)C)cn(C)c(=O)c1C [Example 61, 5-(6-isopropyl-2-(1-(2-(methylsulfonyl)ethyl)piperidin-4-yl)-4H-pyrrolo[3,2-d]thiazol-5-yl)-1,3,4-trimethylpyridin-2(1H)-one]",22.7,5.33
"Cc1c(-c2[nH]c3sc(C4CCN(C5COC5)CC4)nc3c2C(C)C)cn(C)c(=O)c1C [Example 60, 5-(6-isopropyl-2-(1-(oxetan-3-yl)piperidin-4-yl)-4H-pyrrolo[3,2-d]thiazol-5-yl)-1,3,4-trimethylpyridin-2(1H)-one]",36.6,27.9
"Cc1c(-c2[nH]c3sc(N4CCN(CC(=O)N(C)C)C[C@@H]4C)nc3c2C(C)C)cn2ncnc2c1C [Example 343, (S)-2-(4-(5-(7,8-dimethyl-[1,2,4]triazolo[1,5-a]pyridin-6-yl)-6-isopropyl-4H-pyrrolo[3,2-d]thiazol-2-yl)-3-methylpiperazin-1-yl)-N,N-dimethylacetamide]",24.1,3.3
"Cc1c(-c2[nH]c3sc(N4CCN(CC(=O)N(C)C)C[C@H]4C)nc3c2C(C)C)cn2ncnc2c1C [Example 312, (R)-2-(4-(5-(7,8-dimethyl-[1,2,4]triazolo[1,5-a]pyridin-6-yl)-6-isopropyl-4H-pyrrolo[3,2-d]thiazol-2-yl)-3-methylpiperazin-1-yl)-N,N-dimethylacetamide]",5.42,17.8

# Continued, values first:
IC50 (human TLR7) [nM],IC50 (human TLR8) [nM],Compound
93.6,481,"COc1cc(-c2[nH]c3sc(C(=O)NCC(F)(F)F)nc3c2C(C)C)cn2ncnc12 [Example 390, 6-isopropyl-5-(8-methoxy-[1,2,4]triazolo[1,5-a]pyridin-6-yl)-N-(2,2,2-trifluoroethyl)-4H-pyrrolo[3,2-d]thiazole-2-carboxamide]"
137,365,"Cc1cc(-c2[nH]c3sc(C(=O)N4CCOCC4)nc3c2C(C)C)cn2ncnc12 [Example 398, (6-isopropyl-5-(8-methyl-[1,2,4]triazolo[1,5-a]pyridin-6-yl)-4H-pyrrolo[3,2-d]thiazol-2-yl)(morpholino)methanone]"
39.5,20.1,"Cc1c(-c2[nH]c3sc(C(=O)N4CCN(S(C)(=O)=O)CC4)nc3c2C(C)C)cn2ncnc2c1C [Example 384, (5-(7,8-dimethyl-[1,2,4]triazolo[1,5-a]pyridin-6-yl)-6-isopropyl-4H-pyrrolo[3,2-d]thiazol-2-yl)(4-(methylsulfonyl)piperazin-1-yl) methanone]"
102,118,"Cc1cc(-c2[nH]c3sc(C(N)=O)nc3c2C(C)C)cn2ncnc12 [Example 391, 6-isopropyl-5-(8-methyl-[1,2,4]triazolo[1,5-a]pyridin-6-yl)-4H-pyrrolo[3,2-d]thiazole-2-carboxamide]"
154,529,"Cc1cc(-c2[nH]c3sc(C(=O)N4CCCOCC4)nc3c2C(C)C)cn2ncnc12 [Example 394, (6-isopropyl-5-(8-methyl-[1,2,4]triazolo[1,5-a]pyridin-6-yl)-4H-pyrrolo[3,2-d]thiazol-2-yl)(1,4-oxazepan-4-yl)methanone]"
39,12.7,"Cc1c(-c2[nH]c3sc(N4CCN(CCS(C)(=O)=O)C[C@@H]4C)nc3c2C(C)C)cn2ncnc2c1C [Example 344, (S)-5-(7,8-dimethyl-[1,2,4]triazolo[1,5-a]pyridin-6-yl)-6-isopropyl-2-(2-methyl-4-(2-(methylsulfonyl)ethyl)piperazin-1-yl)-4H-pyrrolo[3,2-d]thiazole]"
29.4,12.2,"Cc1c(-c2[nH]c3sc(C(=O)N4CCNC(=O)C4)nc3c2C(C)C)cn2ncnc2c1C [Example 378, 4-(5-(7,8-dimethyl-[1,2,4]triazolo[1,5-a]pyridin-6-yl)-6-isopropyl-4H-pyrrolo[3,2-d]thiazole-2-carbonyl)piperazin-2-one]"
23.4,3.12,"Cc1c(-c2[nH]c3sc(N4CCN(CC(C)(C)O)C[C@@H]4C)nc3c2C(C)C)cn2ncnc2c1C [Example 345, (S)-1-(4-(5-(7,8-dimethyl-[1,2,4]triazolo[1,5-a]pyridin-6-yl)-6-isopropyl-4H-pyrrolo[3,2-d]thiazol-2-yl)-3-methylpiperazin-1-yl)-2-methylpropan-2-ol]"
1220,1330,"Cc1cc(-c2[nH]c3sc(N4CCN(C(=O)CN(C)C)C[C@H]4C)nc3c2C(C)C)cn2ncnc12 [Example 360, (R)-2-(dimethylamino)-1-(4-(6-isopropyl-5-(8-methyl-[1,2,4]triazolo[1,5-a]pyridin-6-yl)-4H-pyrrolo[3,2-d]thiazol-2-yl)-3-methylpiperazin-1-yl)ethan-1-one]"
